Assay results reported in patent US20250368649A1, “TETRAHYDROPYRIDOPYRIMIDINE PAN-KRAS INHIBITORS” (Mirati Therapeutics, Inc., priority 2022, published 2025).

Tests used:
KRas WT = KRas WT (Homo sapiens, UniProt P01116); experiment: KRas binding assay (TR-FRET displacement), KRas WT; conditions: TR-FRET displacement
KRas G12C = KRas G12C (Homo sapiens, UniProt P01116, G12C); format: binding; conditions: TR-FRET displacement, read-out: Binding to KRas (IC50 nM) G12C
PSN1 cells = experiment: Inhibition of KRas-mediated phosphorylation of ERK (Cisbio HTRF pERK), PSN1 cells; format: cell-based; conditions: Homo sapiens, PSN1, 3 h, 3 hr compound incubation
How it was run: (§1)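 Seeding density of 6,000 cells per well was used, with cultures kept in RPMI/10% FBS from day 1.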

MKN1 cells = experiment: Inhibition of KRas-mediated phosphorylation of ERK (Cisbio HTRF pERK), MKN1 cells; format: cell-based; conditions: Homo sapiens, MKN-1, 3 hr compound incubation
How it was run: as §1

H460 cells = experiment: Inhibition of KRas-mediated phosphorylation of ERK (Cisbio HTRF pERK), H460 cells; format: cell-based; conditions: Homo sapiens, NCI-H460, 3 h, 3 hr compound incubation
KRas G12V = KRas G12V (Homo sapiens, UniProt P01116, G12V); experiment: biochemical; conditions: Binding to KRas (IC50 nM) G12V, TR-FRET displacement, KRas G12V
KRas G12V, sequence (P01116 1-169 isoform P01116-2 G12V): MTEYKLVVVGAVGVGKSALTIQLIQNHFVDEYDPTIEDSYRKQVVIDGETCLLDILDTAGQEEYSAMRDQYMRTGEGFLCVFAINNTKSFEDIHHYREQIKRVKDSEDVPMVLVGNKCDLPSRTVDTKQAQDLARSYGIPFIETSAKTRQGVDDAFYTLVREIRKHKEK

H358 cells = experiment: Inhibition of KRas-mediated phosphorylation of ERK (Cisbio HTRF pERK), H358 cells; format: cell-based; conditions: Homo sapiens, NCI-H358, 3 h, 3 hr compound incubation
ASPC1 cells = experiment: Inhibition of KRas-mediated phosphorylation of ERK (Cisbio HTRF pERK), ASPC1 cells; format: cell-based; conditions: Homo sapiens, ASPC1, 3 h, AsPC-1 cells; 3 hr compound incubation
KRas G12D = KRas G12D (Homo sapiens, UniProt P01116, G12D); experiment: biochemical; conditions: Binding to KRas (IC50 nM) G12D, TR-FRET displacement, KRas G12D
KRas G12D, sequence (P01116 1-169 isoform P01116-2 G12D): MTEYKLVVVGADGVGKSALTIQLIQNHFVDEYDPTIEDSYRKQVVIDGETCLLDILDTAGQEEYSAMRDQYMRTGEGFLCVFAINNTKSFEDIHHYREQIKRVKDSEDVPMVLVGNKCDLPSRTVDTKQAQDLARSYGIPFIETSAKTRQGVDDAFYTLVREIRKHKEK

A549 cells = experiment: Inhibition of KRas-mediated phosphorylation of ERK (Cisbio HTRF pERK), A549 cells; format: cell-based; conditions: Homo sapiens, A549, 3 h, 3 hr compound incubation
HCT116 cells = experiment: Inhibition of KRas-mediated phosphorylation of ERK (Cisbio HTRF pERK), HCT116 cells; format: cell-based; conditions: Homo sapiens, HCT-116, 3 h, 3 hr compound incubation
H727 cells = experiment: Inhibition of KRas-mediated phosphorylation of ERK (Cisbio HTRF pERK), H727 cells; format: cell-based; conditions: Homo sapiens, NCI-H727, 3 h, 3 hr compound incubation
KRas G12S = KRas G12S (Homo sapiens, UniProt P01116, G12S); format: binding; conditions: TR-FRET displacement, read-out: Binding to KRas (IC50 nM) G12S
KRas G12S, sequence (P01116 1-169 isoform P01116-2 G12S): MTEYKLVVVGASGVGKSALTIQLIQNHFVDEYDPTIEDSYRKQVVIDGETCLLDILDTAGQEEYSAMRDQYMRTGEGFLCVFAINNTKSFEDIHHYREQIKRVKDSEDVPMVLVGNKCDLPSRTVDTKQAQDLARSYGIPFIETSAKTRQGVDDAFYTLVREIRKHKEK

KRas G12R = KRas G12R (Homo sapiens, UniProt P01116, G12R); experiment: biochemical; conditions: Binding to KRas (IC50 nM) G12R, TR-FRET displacement, KRas G12R
KRas G12R, sequence (P01116 1-169 isoform P01116-2 G12R): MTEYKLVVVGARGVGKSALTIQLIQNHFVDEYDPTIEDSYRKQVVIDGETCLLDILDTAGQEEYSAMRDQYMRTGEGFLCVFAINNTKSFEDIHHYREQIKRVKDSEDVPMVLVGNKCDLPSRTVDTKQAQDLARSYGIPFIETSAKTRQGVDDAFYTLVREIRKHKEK

KRas WT, sequence (P01116 1-169 isoform P01116-2): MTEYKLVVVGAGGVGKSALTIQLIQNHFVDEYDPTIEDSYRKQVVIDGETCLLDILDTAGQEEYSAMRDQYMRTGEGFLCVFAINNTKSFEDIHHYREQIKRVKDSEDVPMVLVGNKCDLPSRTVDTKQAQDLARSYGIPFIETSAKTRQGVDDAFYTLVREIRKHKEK
KRas G12C, sequence (P01116 1-169 isoform P01116-2 G12C): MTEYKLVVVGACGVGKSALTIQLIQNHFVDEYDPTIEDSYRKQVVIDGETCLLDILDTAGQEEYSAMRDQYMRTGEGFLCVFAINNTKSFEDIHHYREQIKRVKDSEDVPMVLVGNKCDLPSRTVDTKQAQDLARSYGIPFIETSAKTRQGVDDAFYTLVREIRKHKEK

IC50 (KRas WT) [nM] | IC50 (KRas G12C) [nM] | IC50 (PSN1 cells) [nM] | IC50 (MKN1 cells) [nM] | IC50 (H460 cells) [nM] | IC50 (KRas G12V) [nM] | IC50 (H358 cells) [nM] | IC50 (ASPC1 cells) [nM] | IC50 (KRas G12D) [nM] | IC50 (A549 cells) [nM] | IC50 (HCT116 cells) [nM] | IC50 (H727 cells) [nM] | IC50 (KRas G12S) [nM] | IC50 (KRas G12R) [nM] | SMILES
< 2 | < 2 | 131 | 2.4 | 12 | < 2 | 6 | 70 | < 2 | 17 | 28 | 60 | < 2 |  | C[C@@H]1C[C@@H]1c1c(Cl)cc(O)cc1N1CCc2c(nc(OC[C@@]34CCCN3C[C@H](F)C4)nc2N2CCC[C@]3(C2)NC(=O)NC3=O)C1 (stereo in doubt) [Example 653, (R)-7-(7-(3-chloro-5-hydroxy-2-(cis-2-methylcyclopropyl)phenyl)-2-(((2R,7aS)-2-fluorotetrahydro-1H-pyrrolizin-7a(5H)-yl)methoxy)-5,6,7,8-tetrahydropyrido[3,4-d]pyrimidin-4-yl)-1,3,7-triazaspiro[4.5]decane-2,4-dione]
5 | 2 | > 10000 | 4.5 | 307 | < 2 | 54 | 82 | < 2 | 294 | 1220 | 100 | 2 |  | C[C@@H]1C[C@@H]1c1c(Cl)cc(O)cc1N1CCc2c(nc(OC[C@@]34CCCN3C[C@H](F)C4)nc2N2CCCn3nc(C(=O)N(C)C)cc3C2)C1 (stereo in doubt) [Example 656, 5-(7-(3-chloro-5-hydroxy-2-(cis-2-methylcyclopropyl)phenyl)-2-(((2R,7aS)-2-fluorotetrahydro-1H-pyrrolizin-7a(5H)-yl)methoxy)-5,6,7,8-tetrahydropyrido[3,4-d]pyrimidin-4-yl)-N,N-dimethyl-5,6,7,8-tetrahydro-4H-pyrazolo[1,5-a][1,4]diazepine-2-carboxamide]
 |  | 4880 | 39.9 | 67 | < 2 | 30 | 27 | < 2 | 266 | 312 | 211 |  | < 2 | CCc1c(F)ccc2cc(O)cc(N3CCc4c(nc(OC[C@@]56CCCN5C[C@H](F)C6)nc4N4CCCC5(CCS(=O)(=O)N5)C4)C3)c12 (stereo partly drawn) [Example 643, 7-(7-(8-ethyl-7-fluoro-3-hydroxynaphthalen-1-yl)-2-(((2R,7aS)-2-fluorotetrahydro-1H-pyrrolizin-7a(5H)-yl)methoxy)-5,6,7,8-tetrahydropyrido[3,4-d]pyrimidin-4-yl)-2-thia-1,7-diazaspiro[4.5]decane 2,2-dioxide]
 |  | > 10000 | 101 | 184 | 7 | 710 | 1940 | 17 | 1130 | 570 | 2330 |  | 4 | CCc1c(F)ccc2cc(O)cc(N3CCc4c(nc(OC[C@@]56CCCN5C[C@H](F)C6)nc4N4CCCN(c5nccs5)CC4)C3)c12 [Example 648, 5-ethyl-6-fluoro-4-(2-(((2R,7aS)-2-fluorotetrahydro-1H-pyrrolizin-7a(5H)-yl)methoxy)-4-(4-(thiazol-2-yl)-1,4-diazepan-1-yl)-5,8-dihydropyrido[3,4-d]pyrimidin-7(6H)-yl)naphthalen-2-ol]
 |  | > 10000 | 23 | 165 | < 2 | 45 | 572 | 18 | 94 | 516 | 84 |  | < 2 | CCc1c(F)ccc2cc(O)cc(N3CCc4c(nc(OC[C@@]56CCCN5C[C@H](F)C6)nc4N4C[C@H]5CC[C@@H](C4)[C@@H]5C#N)C3)c12 [Example 651, (1R,5S,8S)-3-(7-(8-ethyl-7-fluoro-3-hydroxynaphthalen-1-yl)-2-(((2R,7aS)-2-fluorotetrahydro-1H-pyrrolizin-7a(5H)-yl)methoxy)-5,6,7,8-tetrahydropyrido[3,4-d]pyrimidin-4-yl)-3-azabicyclo[3.2.1]octane-8-carbonitrile]
